Data on 58 compounds can be found in PMC12040169 (PLOS Biology, 2025).

The data set in a line: in vitro. To be noted: human, hela cells, % viability.
Take `O=C(CCCN1C(=O)c2ccccc2C1=O)Oc1ccc(-c2ccccc2)cc1` [CBK267144]: the viability (in general, a read-out of living cells in per cent, often relative to untreated cells) at 28.5 h, 10 µM was determined as 98.1%.

With `O=C(CSc1nc[nH]n1)Nc1ccc(-c2nc3ccccc3s2)cc1` [CBK267146], the viability at 28.5 h, 10 µM worked out at 81.9%. As for `O=C(Cn1c(C(F)(F)F)nc2ccccc21)NCCN1CCCC1` [CBK267150], the viability at 28.5 h, 10 µM came to 97.8%.

Regarding `Cn1c(SCC(=O)N2CCN(Cc3ccccc3)CC2)nnc1-c1cccc([N+](=O)[O-])c1` [CBK267154], the viability at 28.5 h, 10 µM came to 90.6%. As to `CN(C)S(=O)(=O)c1ccc(NC(=O)CCC(=O)O)cc1` [CBK267156], the viability at 28.5 h, 10 µM was 91.6%.

`S=C(NCCc1c[nH]c2ccccc12)NCc1ccco1` [CBK267157]: the viability at 28.5 h, 10 µM is 92.7%. The result for `Cc1cccc(C)c1NC(=O)CC1Sc2ccccc2NC1=O` (stereo not shown) [CBK267160] reads 97%.

Regarding `COc1ccc(Cl)cc1NC(=S)NNC(=O)c1cccnc1` [CBK267161], the viability at 28.5 h, 10 µM was found to be 92.7%. As for `c1ccc(Cc2nn3c(COc4ccccc4)nnc3s2)cc1` [CBK267163], the viability at 28.5 h, 10 µM came to 88%. As for `c1csc(-c2csc3ncnc(NCCCN4CCOCC4)c23)c1` [CBK267166], the viability at 28.5 h, 10 µM amounted to 98.1%. Then `Cc1ccc(C(=O)O)cc1S(=O)(=O)N(C)CCO` [CBK267167], with 94.1%; and `CCN1C(=O)c2cccc3c(S(=O)(=O)N4CCCC4C(=O)O)ccc1c23` (stereo not shown) [CBK267169], with 109%; and `Cc1ccc(C(=O)O)cc1S(=O)(=O)NCCCO` [CBK267171], with 96.9%. As for `COC(=O)COc1ccc(S(=O)(=O)NCc2ccc3c(c2)OCO3)cc1C` [CBK267172], the viability at 28.5 h, 10 µM stood at 90.3%. With `CCc1ccc(OCC(=O)NC(=S)Nc2cccc3nsnc23)cc1` [CBK267173], the viability at 28.5 h, 10 µM turned out to be 100%.

Regarding `Nc1ncnc2[nH]c(SCc3nc4ccc(I)cc4c(=O)n3-c3ccccc3)nc12` [CBK267174], the viability at 28.5 h, 10 µM came to 96.2%.

As for `COc1ccc(S(=O)(=O)Nc2ccncc2)cc1N(C)S(=O)(=O)c1ccccc1` [CBK267179], the viability at 28.5 h, 10 µM was determined as 103%. Turning to `O=C(COc1cccc(Cl)c1)NNC(=S)Nc1ccccc1` [CBK267180], the viability at 28.5 h, 10 µM stood at 88.4%. Then `O=C(Nc1ccncc1)c1ccc(CNS(=O)(=O)c2cccc(C(F)(F)F)c2)cc1` [CBK267181], with 88.5%; and `Cc1cc(-c2nn3c(-c4ccccc4)nnc3s2)c2ccccc2n1` [CBK267187], with 101%. Take `CN(C)c1nc(NCc2ccccc2)nc(SCC(=O)Nc2ccccc2Cl)n1` [CBK267190]: the viability at 28.5 h, 10 µM was found to be 93.3%. In the case of `O=C(CSc1nnnn1-c1ccccc1)Nc1nsc(-c2ccccc2)n1` [CBK267192], the viability at 28.5 h, 10 µM came to 108%. As to `Cc1cc(C)c(C)c(S(=O)(=O)NCc2ccc(C(=O)Nc3ccncc3)cc2)c1C` [CBK267193], the viability at 28.5 h, 10 µM is 90.5%. For `Nc1nonc1C(=O)NCCNCc1ccc(Cl)cc1` [CBK267194], the viability at 28.5 h, 10 µM worked out at 101%. As to `CC(C)C(NS(=O)(=O)c1ccc(Oc2ccccc2Cl)cc1)C(=O)O` (stereo not shown) [CBK267195], the viability at 28.5 h, 10 µM was found to be 100%. Then `Cc1nnc(SCC(=O)N2CCN(Cc3ccccc3)CC2)s1` [CBK267196], with 96%. Consider `O=C(O)c1ccccc1-c1ccccc1C(=O)NCCCO` [CBK267197], for which the viability at 28.5 h, 10 µM is 92.3%.

On to `O=C(O)c1cccc(S(=O)(=O)N2CCC(C(=O)O)CC2)c1` [CBK267199], for which the viability at 28.5 h, 10 µM turned out to be 93.6%. The result for `O=C(Cn1nnc2ccccc21)NCCN1CCCC1` [CBK267200] reads 106%; that for `C=CCOc1c(Br)cc(CNc2ccc(C(=O)O)cc2)cc1OC` [CBK267202], 111%; that for `CN1CCN(S(=O)(=O)c2ccc3c(c2)oc(=O)c2cc(S(=O)(=O)N4CCN(C)CC4)ccc23)CC1` [CBK267206], 85%. Regarding `Cc1ccc(-n2ncc(C(=O)N3CCc4ccccc4C3)c2NC(=O)c2ccco2)cc1C` [CBK267207], the viability at 28.5 h, 10 µM turned out to be 100%. Regarding `O=C(O)c1cccc(-c2ccc(/C=C\c3nc(O)c([N+](=O)[O-])c(=O)[nH]3)o2)c1` [CBK267209], the viability at 28.5 h, 10 µM came to 96.9%. Regarding `COC(=O)Cc1ccc(NC(=S)Nc2ccc(N3CCOCC3)cc2)cc1` [CBK267211], the viability at 28.5 h, 10 µM is 87.4%. As to `CCNC(=S)NC(=Nc1nc(C)cc(C)n1)NCc1cccnc1` [CBK267212], the viability at 28.5 h, 10 µM was 97.2%.

Take `O=C(NCCO)NC(=S)c1ccccc1` [CBK267213]: the viability at 28.5 h, 10 µM turned out to be 95.2%. Turning to `O=C(Cn1c(-c2ccccn2)nc2ccccc21)NCCN1CCOCC1` [CBK267214], the viability at 28.5 h, 10 µM came out at 95%. Then `c1ccc(CSc2nnc(COc3cccc4ccccc34)n2Cc2ccccc2)cc1` [CBK267215], with 116%; and `Fc1ccccc1Nc1nc(-c2ccncc2)cs1` [CBK267216], with 103%.

Turning to `Cc1cc(C)nc(NS(=O)(=O)c2ccc(Nc3ncnc(N)c3[N+](=O)[O-])cc2)n1` [CBK267217], the viability at 28.5 h, 10 µM was 96.6%. Regarding `CCN1CCN(C(=O)CN(C)S(=O)(=O)c2ccc(Cl)cc2)CC1` [CBK267218], the viability at 28.5 h, 10 µM stood at 100%. `N#Cc1ccsc1NC(=O)CSc1nnc[nH]1` [CBK267221]: the viability at 28.5 h, 10 µM worked out at 87.7%. Take `COC(=O)c1c(NC(=O)CSc2nc[nH]n2)sc2c1CCCC2` [CBK267222]: the viability at 28.5 h, 10 µM was determined as 81.6%. As to `O=C(O)COc1ccc(Br)cc1/C=C\c1nc(O)c([N+](=O)[O-])c(=O)[nH]1` [CBK267223], the viability at 28.5 h, 10 µM worked out at 88.5%. On to `CCOC(=O)c1c(NC(=O)CSc2nc[nH]n2)sc2c1CCC2` [CBK267225], for which the viability at 28.5 h, 10 µM amounted to 94.5%. Then `COc1ccc(N2C(=O)CC(NNC(=O)CNC(C)=O)C2=O)cc1` (stereo not shown) [CBK267228], with 87.7%. Consider `COc1ccc(-c2nc(NC(=O)CSc3n[nH]c(N)n3)ns2)cc1` [CBK267236], for which the viability at 28.5 h, 10 µM stood at 81.8%. On to `O=C(NCCO)c1nc(NCCO)c2ccccc2n1` [CBK267239], for which the viability at 28.5 h, 10 µM came out at 110%. Regarding `N#CC1=C(N)N2C(=C(C#N)C13CCN(Cc1ccccc1)CC3)Nc1ccccc12` [CBK267241], the viability at 28.5 h, 10 µM worked out at 108%. The result for `Cc1ccc(-c2csc3ncnc(SCc4csc(C)n4)c23)cc1` [CBK267244] reads 91.7%. For `FC(F)(F)c1cccc(NC(=S)Nc2ccc(Cc3ccncc3)cc2)c1` [CBK267251], the viability at 28.5 h, 10 µM amounted to 89.1%.

Take `Cc1cc(C)nc(N/C(=N\C(=S)Nc2cccc(Cl)c2C)NCc2cccnc2)n1` [CBK267254]: the viability at 28.5 h, 10 µM is 93.5%.

On to `COc1cc(OC)nc(NC(=O)CN2CCN(c3ccc(F)cc3)CC2)n1` [CBK267259], for which the viability at 28.5 h, 10 µM was 96.5%. Take `Cc1cc(/C=C(\C#N)c2nc3ccccc3[nH]2)c(C)n1-c1ccc(C(=O)O)cc1` [CBK267262]: the viability at 28.5 h, 10 µM worked out at 94.7%. With `c1cnc2cc(Oc3ccc4nccnc4c3)ccc2n1` [CBK267266], the viability at 28.5 h, 10 µM was 99.4%.

Regarding `Nc1ncnc(NCCCN2CCOCC2)c1[N+](=O)[O-]` [CBK267267], the viability at 28.5 h, 10 µM came to 91.8%. Regarding `N#Cc1ccccc1CSc1nnc(-c2ccco2)n1-c1ccccc1` [CBK267270], the viability at 28.5 h, 10 µM was found to be 91.8%. The result for `Cc1cccnc1Nc1nc(-c2ccccn2)cs1` [CBK267272] reads 91.5%.
